Measured values as given in publication PMC2988379 (The Journal of Biological Chemistry, 2010).
Where a chain is given by its changes, count along the chain named. Where two headings read alike, the source gives them in different places.

Experiments:
Assay in all cases: intrinsic Trp fluorescence titration
Format in all cases: binding
[1] = biological target: T1, PimB′ (Corynebacterium glutamicum PimB′, NCgl2106) (Corynebacterium glutamicum, UniProt Q8NNK8, G291S)
T1 sequence (Q8NNK8 1-381 G291S): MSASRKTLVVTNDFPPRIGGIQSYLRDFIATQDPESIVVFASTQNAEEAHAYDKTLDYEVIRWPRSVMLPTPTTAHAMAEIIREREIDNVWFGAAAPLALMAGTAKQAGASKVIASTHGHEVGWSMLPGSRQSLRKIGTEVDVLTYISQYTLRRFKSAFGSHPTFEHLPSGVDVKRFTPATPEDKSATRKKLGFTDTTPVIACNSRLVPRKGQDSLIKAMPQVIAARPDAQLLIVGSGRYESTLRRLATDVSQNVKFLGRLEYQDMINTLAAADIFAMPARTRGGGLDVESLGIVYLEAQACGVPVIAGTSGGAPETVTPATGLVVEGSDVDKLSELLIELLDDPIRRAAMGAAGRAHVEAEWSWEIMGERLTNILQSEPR

[2] = biological target: T2, PimB′ (Corynebacterium glutamicum PimB′, NCgl2106) (Corynebacterium glutamicum, UniProt Q8NNK8, Q22A)
T2 sequence (Q8NNK8 1-381 Q22A): T1 sequence (Q8NNK8 1-381 G291S) with Q22A, S291G

[3] = biological target: T3, PimB′ (Corynebacterium glutamicum PimB′, NCgl2106) (Corynebacterium glutamicum, UniProt Q8NNK8, H118S)
T3 sequence (Q8NNK8 1-381 H118S): T1 sequence (Q8NNK8 1-381 G291S) with H118S, S291G

[4] = biological target: T4, PimB′ (Corynebacterium glutamicum PimB′, NCgl2106) (Corynebacterium glutamicum, UniProt Q8NNK8, D13N)
T4 sequence (Q8NNK8 1-381 D13N): T1 sequence (Q8NNK8 1-381 G291S) with D13N, S291G

[5] = biological target: T5, PimB′ (Corynebacterium glutamicum PimB′, NCgl2106) (Corynebacterium glutamicum, UniProt Q8NNK8, S205G)
T5 sequence (Q8NNK8 1-381 S205G): T1 sequence (Q8NNK8 1-381 G291S) with S205G, S291G

[6] = biological target: T6, PimB′ (Corynebacterium glutamicum PimB′, NCgl2106) (Corynebacterium glutamicum, UniProt Q8NNK8, G20W)
T6 sequence (Q8NNK8 1-381 G20W): T1 sequence (Q8NNK8 1-381 G291S) with G20W, S291G

[7] = biological target: T7, PimB′ (Corynebacterium glutamicum PimB′, NCgl2106) (Corynebacterium glutamicum, UniProt Q8NNK8, R210S)
T7 sequence (Q8NNK8 1-381 R210S): T1 sequence (Q8NNK8 1-381 G291S) with R210S, S291G

[8] = biological target: T8, PimB′ (Corynebacterium glutamicum PimB′, NCgl2106) (Corynebacterium glutamicum, UniProt Q8NNK8, I21A)
T8 sequence (Q8NNK8 1-381 I21A): T1 sequence (Q8NNK8 1-381 G291S) with I21A, S291G

[9] = biological target: T9, PimB′ (Corynebacterium glutamicum PimB′, NCgl2106) (Corynebacterium glutamicum, UniProt Q8NNK8)
T9 sequence (Q8NNK8 1-381): T1 sequence (Q8NNK8 1-381 G291S) with S291G

[10] = biological target: T10, PimB′ (Corynebacterium glutamicum PimB′, NCgl2106) (Corynebacterium glutamicum, UniProt Q8NNK8, R206S)
T10 sequence (Q8NNK8 1-381 R206S): T1 sequence (Q8NNK8 1-381 G291S) with R206S, S291G

[11] = biological target: T11, PimB′ (Corynebacterium glutamicum PimB′, NCgl2106) (Corynebacterium glutamicum, UniProt Q8NNK8, D13A)
T11 sequence (Q8NNK8 1-381 D13A): T1 sequence (Q8NNK8 1-381 G291S) with D13A, S291G

[12] = biological target: T9, PimB′ (Corynebacterium glutamicum PimB′, NCgl2106); remark: listed apart in the source

Kd [12] [µM] | Structure (SMILES) | Kd [1] [µM] | Kd [2] [µM] | Kd [3] [µM] | Kd [4] [µM] | Kd [5] [µM] | Kd [6] [µM] | Kd [7] [µM] | Kd [8] [µM] | Kd [9] [µM] | Kd [10] [µM] | Kd [11] [µM]
– | Nc1nc2c(ncn2[C@@H]2O[C@H](COP(=O)(O)OP(=O)(O)O[C@H]3O[C@H](CO)[C@@H](O)[C@H](O)[C@@H]3O)[C@@H](O)[C@H]2O)c(=O)[nH]1 [GDP-Man] | 68.7 ± 35.5 | 60.3 ± 22.8 | 72.4 ± 27.5 | 30.1 ± 6.9 | 18.7 ± 4.6 | 21.9 ± 6.4 | 40.2 ± 10.7 | 56 ± 14.5 | 19 ± 4.6 | 42.7 ± 9.4 | 42.8 ± 11.9
36.5 ± 6.9 | Nc1nc2c(ncn2[C@@H]2O[C@H](COP(=O)(O)OP(=O)(O)O)[C@@H](O)[C@H]2O)c(=O)[nH]1 [GDP] | – | – | – | – | – | – | – | – | – | – | –
